We go through 1 molecule from patent publication US9730679B1, “Device for sterile uterine sampling and drug delivery” (University of South Florida, priority 2012, dated 2017).

Values after ≈ are worked out from the molar mass of the structure shown.

Data set [1] concerns Escherichia coli (ATCC 25922). Description: Minimum inhibitory concentration, visual turbidimetric method with OD600 of MIC tubes. The class given is cell-based. The following applies: ATCC25922, 4 h, E. coli, four hours incubation at 37° C., read-out: minimum inhibitory doxycycline concentration, MIC. On the procedure:
To determine the antibacterial activity of the doxycycline-loaded chitosan nanoparticles, minimum inhibitory concentrations (MICs) and minimum bactericidal concentrations (MBCs) were evaluated. The procedures for both assays were adopted from Lee et al. (Blanchet […]. Forward Selection of Explanatory Variables. Ecology. 2008; 89:2623-2632). MIC is the lowest concentration of DCNPs that inhibits bacterial growth. For the analyses, a visual turbidimetric method was used. Freshly prepared nanoparticles, blank and drug-loaded, were UV-sterilized for ten minutes. […] A 500 μL aliquot of this solution with sterilized particles was added to a tube containing Luria-Bertani (LB) broth for a total volume of 2 mL. A serial dilution, with a dilution factor of 0.3, was performed for the remaining six tubes. A parallel series of experiments was also run using unencapsulated doxycycline. Under sterile conditions, the tubes containing particles were inoculated with 1.0×10^5 colony-forming units (CFUs)/mL of Escherichia coli cells in LB broth, then incubated at 37° C. under agitation for four hours. Following the incubation, the tubes were assessed visually for the appearance of turbidity (i.e., bacterial growth). […] All MIC tubes were analyzed to assess the amount of bacteria present by measuring optical density of the suspension at 600 nm (OD600) and then calculating the number of bacterial cells present.

Data set [2] relates to normal human ovarian surface epithelial (OSE) cells. Type of data set: cell-based. The following applies: 5 days. On the procedure:
Cytotoxicity of the DCNPs was determined by treating normal human ovarian surface epithelial (OSE) cells with different concentrations of doxycycline-loaded nanoparticles, then monitoring cell viability over the next five days. The OSE cells were cultured for 4 to 7 days in flasks containing medium199/MCDB105 media supplemented with 10% fetal bovine serum. The cells were removed from the flasks and counted, and then 100 μL of medium containing cells was added to the wells of a 96-well plate to give final cell concentrations of 5×10^2, 1.0×10^3, or 2.0×10^3 cells/mL. After 24 hours incubation at 37° C., the cells were treated with blank nanoparticles, DCNP4 (1 and 2 μg/mL), DCNP6 (1 and 2 μg/mL), or unencapsulated doxycycline (1 and 2 μg/mL). The plate was then incubated at 37° C. Bright microscopy was used to examine the cell morphology after treatment just before the assessing for cytotoxicity. Cytotoxicity was assessed on days 1, 3, and 5 by WST-1 assay. WST-1 assay reagent (10 μL) was added to each well, followed by incubation for another 4 hours at 37° C. and then spectrophotometric assessment of cell viability. […] This dye was quantified using a Biotex Synergy multiplate reader to measure absorbance at 450 nm (reference wavelength was 630 nm). All treatments were assayed in triplicate (n=3) and calculated according to equation 5: […]

On to `C[C@H]1c2cccc(O)c2C(=O)C2=C(O)[C@]3(O)C(=O)C(C(N)=O)=C(O)[C@@H](N(C)C)[C@@H]3[C@@H](O)[C@@H]21` [Doxy, Doxycycline], for which the MIC in data set [1] came to 13 µg/mL (≈ 29.3 µM). In data set [2], the “decrease in cell viability” value amounted to 61%.
